Results reported in US12077503B2, “Substituted cyclic amides and their use as herbicides” (FMC CORPORATION, priority 2015, dated 2024).

What was measured:
Assay type in all cases: in vivo
[1] = system: giant foxtail (Setaria faberii); experiment: Test A preemergence
Procedure, shortened: (§1)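 Seeds sprayed preemergence with a directed soil spray, or plants at 2 to 10 cm height and one- to two-leaf stage sprayed postemergence, with test chemicals in a non-phytotoxic solvent mixture containing surfactant, in loam soil–sand blend. Injury rated visually against untreated controls after about 10 d in greenhouse, 0 (no effect) to 100 (complete control).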

[2] = system: pigweed (Amaranthus retroflexus); experiment: Test A preemergence
[3] = system: ragweed (common ragweed, Ambrosia elatior); experiment: Test A preemergence
Procedure, shortened: as §1

[4] = system: ryegrass, Italian (Italian ryegrass, Lolium multiflorum); experiment: Test A preemergence
Procedure, shortened: as §1

Kochia (Kochia scoparia) [5] = experiment: Test A preemergence
Procedure, shortened: as §1

[6] = system: barnyardgrass (Echinochloa crus-galli); experiment: Test A preemergence
Procedure, shortened: as §1

[7] = system: giant foxtail (Setaria faberii); experiment: Test A postemergence
Procedure, shortened: as §1

[8] = system: pigweed (Amaranthus retroflexus); experiment: Test A postemergence
Procedure, shortened: as §1

corn (Zea mays) = experiment: Test A postemergence
Procedure, shortened: as §1

[9] = system: ragweed (common ragweed, Ambrosia elatior); experiment: Test A postemergence
Procedure, shortened: as §1

[10] = system: Galium (catchweed bedstraw, Galium aparine); experiment: Test A postemergence
Procedure, shortened: as §1

[11] = system: blackgrass (Alopecurus myosuroides); experiment: Test A postemergence
Procedure, shortened: as §1

[12] = system: wheat (Triticum aestivum); experiment: Test A postemergence
Procedure, shortened: as §1

[13] = system: ryegrass, Italian (Italian ryegrass, Lolium multiflorum); experiment: Test A postemergence
Procedure, shortened: as §1

Kochia (Kochia scoparia) [14] = experiment: Test A postemergence
Procedure, shortened: as §1

[15] = system: barnyardgrass (Echinochloa crus-galli); experiment: Test A postemergence
Procedure, shortened: as §1

[16] = system: ducksalad (Heteranthera limosa); experiment: Test B flooded paddy test; details: 250 g ai/ha, Flood, 0 to 100 scale where 0 is no effect and 100 is complete control
Procedure, shortened: (§2)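 Evaluation by eye, against controls, occurred 13–15 d post-treatment in a greenhouse, using a 0 (no effect) to 100 (complete control) scale. Application was into the paddy water, 3 cm deep over the soil, on 2-leaf plants.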

rice (Oryra sativa) = experiment: Test B flooded paddy test; details: 250 g ai/ha, Flood, 0 to 100 scale where 0 is no effect and 100 is complete control
Procedure, shortened: as §2

[17] = system: barnyardgrass (Echinochloa crus-galli); experiment: Test B flooded paddy test; details: 250 g ai/ha, Flood, 0 to 100 scale where 0 is no effect and 100 is complete control
Procedure, shortened: as §2

[18] = system: sedge, umbrella (small-flower umbrella sedge, Cyperus difformis); experiment: Test B flooded paddy test; details: 250 g ai/ha, Flood, 0 to 100 scale where 0 is no effect and 100 is complete control
Procedure, shortened: as §2

[19] = 125 g ai/ha, Preemergence, visual injury after approximately 10 d, 0 to 100 scale where 0 is no effect and 100 is complete control
[20] = Preemergence, 500 g ai/ha, visual injury approx. 10 d
[21] = 125 g ai/ha, postemergence, visual injury rating on 0 to 100 scale (0 no effect, 100 complete control), approx. 10 d
[22] = Postemergence, 500 g ai/ha, 0 to 100 scale where 0 is no effect and 100 is complete control

Cn1ccc2ccc([C@H]3CNC(=O)[C@@H]3C(=O)Nc3cccc(F)c3F)cc21 [Compound 1263]
30%: pest or weed control at 250 g/ha ([16]; Heteranthera limosa, read-out: Ducksalad plant response rating)
0%: pest or weed control at 31 g/ha ([1]; Setaria faberi, pre-emergence, 240 h, 31 g ai/ha, Preemergence, 0 to 100 scale where 0 is no effect and 100 is complete control, read-out: Foxtail, Giant plant response rating) | pest or weed control at 125 g/ha ([1]; Setaria faberi, pre-emergence, 240 h, 125 g ai/ha, preemergence, visual injury rating, 0 to 100 scale where 0 is no effect and 100 is complete control, approximately 10 d, read-out: Foxtail, Giant plant response rating) | pest or weed control at 31 g/ha ([2]; Amaranthus retroflexus, pre-emergence, 240 h, 31 g ai/ha, Preemergence, 0 to 100 scale where 0 is no effect and 100 is complete control, read-out: Pigweed plant response rating) | pest or weed control at 125 g/ha ([2]; Amaranthus retroflexus, pre-emergence, 240 h, 125 g ai/ha, preemergence, visual injury rating, 0 to 100 scale where 0 is no effect and 100 is complete control, approximately 10 d, read-out: Pigweed plant response rating) | pest or weed control at 31 g/ha ([3]; Ambrosia artemisiifolia, pre-emergence, 240 h, 31 g ai/ha, Preemergence, 0 to 100 scale where 0 is no effect and 100 is complete control, read-out: Ragweed plant response rating) | pest or weed control at 125 g/ha ([3]; Ambrosia artemisiifolia, pre-emergence, 240 h, 125 g ai/ha, preemergence, visual injury rating, 0 to 100 scale where 0 is no effect and 100 is complete control, approximately 10 d, read-out: Ragweed plant response rating) | pest or weed control at 31 g/ha ([4]; Lolium multiflorum, pre-emergence, 240 h, 31 g ai/ha, Preemergence, 0 to 100 scale where 0 is no effect and 100 is complete control, read-out: Ryegrass, Italian plant response rating) | pest or weed control at 125 g/ha ([4]; Lolium multiflorum, pre-emergence, 240 h, 125 g ai/ha, preemergence, visual injury rating, 0 to 100 scale where 0 is no effect and 100 is complete control, approximately 10 d, read-out: Ryegrass, Italian plant response rating) | pest or weed control at 31 g/ha (Kochia (Kochia scoparia) [5]; Bassia scoparia, pre-emergence, 240 h, 31 g ai/ha, Preemergence, 0 to 100 scale where 0 is no effect and 100 is complete control, read-out: Kochia plant response rating) | pest or weed control at 125 g/ha (Kochia (Kochia scoparia) [5]; Bassia scoparia, pre-emergence, 240 h, 125 g ai/ha, preemergence, visual injury rating, 0 to 100 scale where 0 is no effect and 100 is complete control, approximately 10 d, read-out: Kochia plant response rating) | pest or weed control at 31 g/ha ([6]; Echinochloa crus-galli, pre-emergence, 240 h, 31 g ai/ha, Preemergence, 0 to 100 scale where 0 is no effect and 100 is complete control, read-out: Barnyardgrass plant response rating) | pest or weed control at 125 g/ha ([6]; Echinochloa crus-galli, pre-emergence, 240 h, 125 g ai/ha, preemergence, visual injury rating, 0 to 100 scale where 0 is no effect and 100 is complete control, approximately 10 d, read-out: Barnyardgrass plant response rating) | pest or weed control at 125 g/ha ([7]; Setaria faberi, post-emergence, 240 h, 125 g ai/ha, postemergence, visual injury vs untreated controls after approx. 10 d, 0 = no effect, 100 = complete control, read-out: Foxtail, Giant plant response rating (0 to 100 scale)) | pest or weed control at 31 g/ha ([7]; Setaria faberi, post-emergence, 240 h, Postemergence, 31 g ai/ha, 0 is no effect, 100 is complete control, read-out: Foxtail, Giant plant response rating (0 to 100 scale)) | pest or weed control at 125 g/ha ([8]; Amaranthus retroflexus, post-emergence, 240 h, 125 g ai/ha, postemergence, visual injury vs untreated controls after approx. 10 d, 0 = no effect, 100 = complete control, read-out: Pigweed plant response rating (0 to 100 scale)) | pest or weed control at 31 g/ha ([8]; Amaranthus retroflexus, post-emergence, 240 h, Postemergence, 31 g ai/ha, 0 is no effect, 100 is complete control, read-out: Pigweed plant response rating (0 to 100 scale)) | plant injury at 125 g/ha (corn (Zea mays); Zea mays, post-emergence, 240 h, 125 g ai/ha, postemergence, visual injury vs untreated controls after approx. 10 d, 0 = no effect, 100 = complete control, read-out: Corn plant response rating (0 to 100 scale)) | plant injury at 31 g/ha (corn (Zea mays); Zea mays, post-emergence, 240 h, Postemergence, 31 g ai/ha, 0 is no effect, 100 is complete control, read-out: Corn plant response rating (0 to 100 scale)) | pest or weed control at 125 g/ha ([9]; Ambrosia artemisiifolia, post-emergence, 240 h, 125 g ai/ha, postemergence, visual injury vs untreated controls after approx. 10 d, 0 = no effect, 100 = complete control, read-out: Ragweed plant response rating (0 to 100 scale)) | pest or weed control at 31 g/ha ([9]; Ambrosia artemisiifolia, post-emergence, 240 h, Postemergence, 31 g ai/ha, 0 is no effect, 100 is complete control, read-out: Ragweed plant response rating (0 to 100 scale)) | pest or weed control at 125 g/ha ([10]; Galium, post-emergence, 240 h, 125 g ai/ha, postemergence, visual injury vs untreated controls after approx. 10 d, 0 = no effect, 100 = complete control, read-out: Galium plant response rating (0 to 100 scale)) | pest or weed control at 31 g/ha ([10]; Galium, post-emergence, 240 h, Postemergence, 31 g ai/ha, 0 is no effect, 100 is complete control, read-out: Galium plant response rating (0 to 100 scale)) | pest or weed control at 125 g/ha ([11]; Alopecurus myosuroides, post-emergence, 240 h, 125 g ai/ha, postemergence, visual injury vs untreated controls after approx. 10 d, 0 = no effect, 100 = complete control, read-out: Blackgrass plant response rating (0 to 100 scale)) | pest or weed control at 31 g/ha ([11]; Alopecurus myosuroides, post-emergence, 240 h, Postemergence, 31 g ai/ha, 0 is no effect, 100 is complete control, read-out: Blackgrass plant response rating (0 to 100 scale)) | plant injury at 31 g/ha ([12]; Triticum aestivum, post-emergence, 240 h, Postemergence, 31 g ai/ha, 0 is no effect, 100 is complete control, read-out: Wheat plant response rating (0 to 100 scale)) | pest or weed control at 125 g/ha ([13]; Lolium multiflorum, post-emergence, 240 h, 125 g ai/ha, postemergence, visual injury vs untreated controls after approx. 10 d, 0 = no effect, 100 = complete control, read-out: Ryegrass, Italian plant response rating (0 to 100 scale)) | pest or weed control at 31 g/ha ([13]; Lolium multiflorum, post-emergence, 240 h, Postemergence, 31 g ai/ha, 0 is no effect, 100 is complete control, read-out: Ryegrass, Italian plant response rating (0 to 100 scale)) | pest or weed control at 125 g/ha (Kochia (Kochia scoparia) [14]; Bassia scoparia, post-emergence, 240 h, 125 g ai/ha, postemergence, visual injury vs untreated controls after approx. 10 d, 0 = no effect, 100 = complete control, read-out: Kochia plant response rating (0 to 100 scale)) | pest or weed control at 31 g/ha (Kochia (Kochia scoparia) [14]; Bassia scoparia, post-emergence, 240 h, Postemergence, 31 g ai/ha, 0 is no effect, 100 is complete control, read-out: Kochia plant response rating (0 to 100 scale)) | pest or weed control at 125 g/ha ([15]; Echinochloa crus-galli, post-emergence, 240 h, 125 g ai/ha, postemergence, visual injury vs untreated controls after approx. 10 d, 0 = no effect, 100 = complete control, read-out: Barnyardgrass plant response rating (0 to 100 scale)) | pest or weed control at 31 g/ha ([15]; Echinochloa crus-galli, post-emergence, 240 h, Postemergence, 31 g ai/ha, 0 is no effect, 100 is complete control, read-out: Barnyardgrass plant response rating (0 to 100 scale)) | pest or weed control at 250 g/ha (rice (Oryra sativa); Oryza sativa, read-out: Rice plant response rating) | pest or weed control at 250 g/ha ([17]; Echinochloa crus-galli, read-out: Barnyardgrass plant response rating) | pest or weed control at 250 g/ha ([18]; Cyperus difformis, read-out: Sedge, Umbrella plant response rating)

CN1CC(c2cccc(OC(F)F)c2)C(C(=O)Nc2ccccc2S(C)(=O)=O)C1=O (centres unmarked) [Compound 523]
20: Corn plant response rating (corn (Zea mays); [21]) | Kochia plant response rating (Kochia (Kochia scoparia) [14]; [21])
0: Plant response rating, Kochia (Kochia (Kochia scoparia) [5]; [19]) | Wheat plant response rating [12, 21] | Plant response rating, Rice (rice (Oryra sativa); 13 to 15 d) | Plant response rating, Sedge, Umbrella ([18]; 13 to 15 d)
60: Plant response rating, Ragweed [3, 19] | Plant response rating, Pigweed [8, 22] | Plant response rating, Galium [10, 22]
30: Pigweed plant response rating [8, 21] | Ryegrass, Italian plant response rating [13, 21]
90: Plant response rating, Foxtail, Giant [1, 19] | Foxtail, Giant plant response rating (0 to 100 scale, 0 is no effect, 100 is complete control) [1, 20] | Pigweed plant response rating (0 to 100 scale, 0 is no effect, 100 is complete control) [2, 20] | Ryegrass, Italian plant response rating (0 to 100 scale, 0 is no effect, 100 is complete control) [4, 20] | Plant response rating, Barnyardgrass [6, 19] | Barnyardgrass plant response rating (0 to 100 scale, 0 is no effect, 100 is complete control) [6, 20] | Plant response rating, Foxtail, Giant [7, 22] | Barnyardgrass plant response rating [15, 21] | Plant response rating, Barnyardgrass [15, 22]
40: Plant response rating, Ryegrass, Italian [4, 19]
70: Plant response rating, Blackgrass [11, 22] | Plant response rating, Wheat [12, 22] | Plant response rating, Ryegrass, Italian [13, 22]
50: Ragweed plant response rating [9, 21] | Plant response rating, Ragweed [9, 22] | Galium plant response rating [10, 21] | Blackgrass plant response rating [11, 21] | Plant response rating, Kochia (Kochia (Kochia scoparia) [14]; [22]) | Plant response rating, Ducksalad ([16]; 13 to 15 d) | Plant response rating, Barnyardgrass ([17]; 13 to 15 d)
80: Plant response rating, Pigweed [2, 19] | Ragweed plant response rating (0 to 100 scale, 0 is no effect, 100 is complete control) [3, 20] | Kochia plant response rating (0 to 100 scale, 0 is no effect, 100 is complete control) (Kochia (Kochia scoparia) [5]; [20]) | Foxtail, Giant plant response rating [7, 21] | Plant response rating, Corn (corn (Zea mays); [22])
